{
  "source": "patent US4997827A",
  "about": "“Compositions containing 5-α-dihydro-19-norethisterone and derivatives thereof for in vivo inhibition of aromatase” (Medical Foundation of Buffalo, Inc., priority 1989, dated 1991)",
  "key": {"[1]": {"tested_on": "NMU-induced breast carcinomas of BUF/N rats", "test": "effect on growth of NMU-induced breast carcinomas", "format": "in vivo, rat", "protocol": "(§1) The animal model for human mammary carcinomas developed by Gullino et al. (P. M. Gullino, H. M. Pettigrew, and F. H. Grantham, J. Natl. Cancer Inst., 54, 401-414 (1975)) was used for this evaluation of 5α-DHNET.N-Nitrosomethylurea (NMU), wet with 3% acetic acid, was dissolved in distilled water (10 mg/ml) and given in three intravenous injections at a dose of 50 mg/kg body weight to BUF/N inbred female rats of 50 days of age on the first injection. The second injection was 4 weeks and the third injection was 8 weeks after the initial administration. The onset of tumors was monitored by daily visual inspection and by palpation of the mammary regions three times a week. The increase in tumor size was monitored by vernier caliper measurements of the subcutaneous mass. One-half the average of the longest and shortest tumor diameters was taken as the value of r in the formula 4/3 πr^3 used to estimate tumor volume. 5α-DHNET in sesame oil was given i.p. daily at a dose of 50 mg/kg body weight/day for 3 weeks to BUF/N female rats having at least one tumor, 2 cm or larger. The number and size of the rumors were monitored on 12 treated and 13 vehicle-only control animals. The mean initial volume of the tumors was 5.10 and 5.53 ml for the control and treated group, respectively. While the tumors in the control group grew very rapidly, growth arrest was clearly observed in 75% (9/12) of the treated group. The death rate was lower in the treated group (3/12 in 4 weeks) than in the control (5/13 in 3 weeks). […] Averaged relative tumor volume is compared in FIG. 7. This also indicates the suppression of tumor growth by the 5α-DHNET treatment. While 24 new tumors developed in 9 control rats in 3 weeks, only 7 developed in 11 treated rats."}, "SD rat (SPF)": {"tested_on": "SD rat (SPF)", "test": "minimum lethal dose in SD rat", "format": "in vivo", "protocol": "For example, the minimum lethal dose of 5α-DHNET for SD rat (SPF) is greater than 5,000 mg/kg."}, "[2]": {"tested_on": "NMU-induced breast carcinomas of BUF/N rats", "test": "preventive effect on incidence of NMU-induced breast carcinoma, first protocol", "format": "in vivo, rat", "protocol": "as §1\nThe preventive effect of 5α-DHNET to lower the incidence of breast carcinoma was assessed by use of the same animal model as in Example 3 but by modification of the administration protocol. The vehicle-only control was prepared as described in Example 3. Oophorectomy was carried out at the 4th week. 5α-DHNET at a dose of 50 mg/kg body weight/day was given i.p. daily for one week starting at the 4th week. The onset of tumors, their number and location in each animal were recorded daily. The results are given in FIGS. 9 and 10 and in Table 2. The control group developed tumors in 100% (16/16) of the animals by the 98th day after the first NMU injection. At this point tumor incidence for the 5α-DHNET treated and oophorectomized groups was 13% (2/16) and 38% (6/16), respectively. […] At the 180th day the death rate for the 5α-DHNET treated and oophorectomized group was 25% and 31%, respectively, compared to 69% for the control group. The mean latent period of tumor development was 72, 101, and 116 days for the control, OVX, and 5α-DHNET group, respectively."}, "[3]": {"tested_on": "estrus cycle of BUF/N inbred female rats", "test": "effect on the rat estrus cycle", "format": "in vivo", "protocol": "BUF/N inbred female rats (50-80 days old) showing regular 4-day estrus cycles were selected by a daily vaginal smear test. A fine powder of the steroid sample was suspended in sesame oil (30 mg/ml) and injected subcutaneously on the proestrus day at a single dose of 50 mg/kg body weight. Vaginal smears were examined daily until normal estrus returned for at least three cycles. The results from the single injection of 5α-DHNET are given in FIG. 1 and those for 6β-bromoandrostenedione are given in FIG. 2 for comparison."}, "[4]": {"tested_on": "NMU-induced breast carcinomas of BUF/N rats", "test": "effect on breast tumor incidence, protocol III", "format": "in vivo, rat", "protocol": "The protocol was further modified to evaluate the generality of the effect of 5α-DHNET on breast carcinomas. […] Oophorectomy was also carried out at 3 weeks after the NMU injection. After 37 weeks of monitoring, the tumor incidence was 87%, 38%, and 19% for the control, 5α-DHNET,and OVX group, respectively. The average number of tumors per tumor carrying animal was 2.8, 1.5 and 1.0 for the central, 5α-DHNET, and OVX group, respectively."}, "[5]": {"tested_on": "human placental aromatase", "test": "in vitro assay with human placental aromatase", "format": "biochemical", "conditions": "in vitro assays", "protocol": "5α-DHNET was previously found to be a very weak in vitro aromatase inhibitor (Y. Osawa, Y. Osawa, C. Yarborough & L. Borzynski, Biochem Soc. Transactions, 656-659 (1983)), requiring a 50 μM concentration for a partial inhibition of human placental aromatase in vitro."}},
  "data": [
    {"compound": "C#C[C@]1(O)CC[C@H]2[C@@H]3CC[C@H]4CC(=O)CC[C@@H]4[C@H]3CC[C@@]21C", "note": "[5α-DHNET, 5α-dihydro-19-norethisterone]", "values": [
      {"measurement": "effect on growth of breast carcinomas", "setting": "[1]; 50 mg/kg body weight/day daily for three weeks", "result": "significantly suppressed the growth of breast carcinomas"},
      {"measurement": "animals with growth arrest of tumors", "setting": "[1]; 50 mg/kg body weight/day i.p. for 3 weeks, 9/12 treated", "result": 75, "unit": "%"},
      {"measurement": "death rate", "setting": "[1]; 50 mg/kg body weight/day i.p. for 3 weeks, in 4 weeks", "result": "3/12"},
      {"measurement": "initially observed tumors disappeared", "setting": "[1]; 3 week period, 6/47", "result": 13, "unit": "%"},
      {"measurement": "tumors regressed", "setting": "[1]; 3 week period, 20/48", "result": 42, "unit": "%"},
      {"measurement": "tumors growing", "setting": "[1]; 3 week period, 28/48", "result": 58, "unit": "%"},
      {"measurement": "Total No. of Tumors disappeared", "setting": "[1]; 3 wk", "result": 6},
      {"measurement": "Total No. of Tumors growing", "setting": "[1]; 3 wk", "result": 28},
      {"measurement": "Total No. of Tumors regressed", "setting": "[1]; 3 wk", "result": 20},
      {"measurement": "share of responded animals maintained without a growth of tumors after stopping administration", "setting": "[1]; another 3 weeks after stopping", "result": "approximately half"},
      {"measurement": "Total No. of Tumors 3 wk", "setting": "[1]; end of 3 wk treatment, 11 rats", "result": 48},
      {"measurement": "Total No. of Tumors newly developed", "setting": "[1]; in 3 weeks, 11 treated rats", "result": 7},
      {"measurement": "Total No. of Tumors start", "setting": "[1]; start of treatment, 11 rats", "result": 47},
      {"measurement": "minimum lethal dose", "setting": "SD rat (SPF)", "result": "greater than 5,000 mg/kg"},
      {"measurement": "tumor incidence", "setting": "[2]; 98th day after first NMU injection, 50 mg/kg/day i.p. one week from 4th week, 2/16", "result": 13, "unit": "%"},
      {"measurement": "death rate", "setting": "[2]; 180th day after first NMU injection, 4/16", "result": 25, "unit": "%"},
      {"measurement": "% Tumor Incidence", "setting": "[2]; 180th day after first NMU injection, 8/16", "result": 50, "unit": "%"},
      {"measurement": "effect on incidence of breast carcinoma and death rate", "setting": "[2]; Examples 4-6, given at different times", "result": "significantly lower the incidence of breast carcinoma and the death rate as effectively as complete oophorectomy"},
      {"measurement": "Average No. of tumors per tumor-carrying rat", "setting": "[2]; first protocol", "result": 1.8},
      {"measurement": "Mean Latent Period of tumor development", "setting": "[2]; first protocol", "result": 116, "unit": "days"},
      {"measurement": "animals with cessation of estrus cycles / animals tested", "setting": "[3]; single s.c. dose 50 mg/kg body weight", "result": "4/4"},
      {"measurement": "effect on the estrus cycle", "setting": "[3]; single s.c. dose 50 mg/kg body weight on proestrus day", "result": "cessation of the estrus cycles for at least four cycles"},
      {"measurement": "tumor incidence", "setting": "[4]; after 37 weeks, treatment 3 weeks after single NMU dose", "result": 38, "unit": "%"},
      {"measurement": "average number of tumors per tumor carrying animal", "setting": "[4]; protocol III", "result": 1.5},
      {"measurement": "potency as aromatase inhibitor relative to 6α- and 6β-bromoandrostenedione", "setting": "[5]", "result": "thousand-fold less potent"}
    ]}
  ]
}
